Patent US8268848B2, “Cyclopropane compound” (Eisai R&D Management Co., Ltd., priority 2010, dated 2012)
Where two headings read alike, the source gives them in different places.

Key:
OX2 = molecular target: T1, OX2 (Homo sapiens, UniProt O43614); assay: Measurement of orexin receptor-binding ability ([125I]-OX-A, cell membranes, OX2); design: expressed in transfected cells; host or cells: CHO cells (membrane preparation); conditions: membranes of recombinant CHO cells expressing OX2, 0.2 nM [125I]-OX-A
T1 sequence (O43614 1-444): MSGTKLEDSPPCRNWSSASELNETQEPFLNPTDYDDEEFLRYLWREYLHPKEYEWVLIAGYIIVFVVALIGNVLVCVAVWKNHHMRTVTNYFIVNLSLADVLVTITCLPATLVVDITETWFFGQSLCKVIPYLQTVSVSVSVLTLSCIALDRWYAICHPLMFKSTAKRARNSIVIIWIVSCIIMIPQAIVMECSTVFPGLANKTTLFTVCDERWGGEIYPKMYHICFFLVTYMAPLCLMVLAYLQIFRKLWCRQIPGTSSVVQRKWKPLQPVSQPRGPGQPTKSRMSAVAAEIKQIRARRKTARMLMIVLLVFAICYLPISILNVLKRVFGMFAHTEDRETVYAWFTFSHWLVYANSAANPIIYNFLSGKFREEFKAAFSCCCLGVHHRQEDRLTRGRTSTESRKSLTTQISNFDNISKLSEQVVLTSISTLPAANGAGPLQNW
Experimental: (§1) 1. Measurement of Orexin Receptor-Binding Ability
(§2) The assay was carried out using a 96-well Wheat Germ Agglutinin Flash Plate (PerkinElmer). The volume in a single assay well was 100 ul, and the composition of the reaction solution was as follows:
(§3) 25 mM HEPES (pH 7.5), 1 mM CaCl2, 4.5 mM MgCl2, 0.5% BSA (bovine serum albumin), 0.1% sodium azide, 0.05% Tween-20, and 0.2% DMSO.
(§4) Cell membranes were prepared from recombinant CHO cells that expressed OX2 or OX1. The cell membranes were used in an amount of 5 μg protein/assay. […] Finally, the radioactivity of each well was measured using a scintillation counter (TopCount, PerkinElmer).

OX1 = molecular target: T2, OX1 (Homo sapiens, UniProt O43613); assay: Measurement of orexin receptor-binding ability ([125I]-OX-A, cell membranes, OX1); design: expressed in transfected cells; host or cells: CHO cells (membrane preparation)
T2 sequence (O43613 1-425): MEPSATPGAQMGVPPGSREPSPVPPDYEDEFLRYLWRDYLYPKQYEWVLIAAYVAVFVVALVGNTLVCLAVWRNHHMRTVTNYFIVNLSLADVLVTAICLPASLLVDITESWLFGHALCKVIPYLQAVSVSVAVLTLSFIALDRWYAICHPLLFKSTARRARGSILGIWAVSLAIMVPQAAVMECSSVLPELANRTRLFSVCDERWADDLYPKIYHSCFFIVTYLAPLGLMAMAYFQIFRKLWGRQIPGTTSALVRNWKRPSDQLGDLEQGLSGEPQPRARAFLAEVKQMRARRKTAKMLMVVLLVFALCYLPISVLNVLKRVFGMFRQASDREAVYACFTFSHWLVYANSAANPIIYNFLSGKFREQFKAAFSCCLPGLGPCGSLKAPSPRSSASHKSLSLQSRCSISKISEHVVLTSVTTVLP
Experimental: as §1, §2, §3, §4

[1] = membranes of recombinant CHO cells expressing OX1, 0.2 nM [125I]-OX-A, read-out: OX1 (IC50)

Row | Structure (SMILES) | IC50 (OX2; read-out: OX2 (IC50)) | IC50 (OX1; [1]) | IC50 (OX2; OX2 (IC50) nM) | IC50 (OX1)
1 | Cc1ccnc(NC(=O)[C@@H]2C[C@@]2(COc2cnc(C)nc2C)c2ccccc2)c1 [Example 47] | 29 nM | 228 nM |  | 
2 | Cc1ncc(OC[C@@]2(c3ccccc3)C[C@H]2C(=O)Nc2cc(Cl)ccn2)c(C)n1 [Example 49] |  |  | 23 nM | 65 nM
3 | COc1ccnc(NC(=O)[C@@H]2C[C@@]2(COc2cnc(C)nc2C)c2ccccc2)c1 [Example 50] |  |  | 13 nM | 12 nM
4 | Cc1ncc(OC[C@@]2(c3ccccc3)C[C@H]2C(=O)Nc2cc3ccccc3cn2)c(C)n1 [Example 52] | 28 nM | 37 nM |  | 
5 | Cc1ncc(OC[C@@]2(c3ccccc3)C[C@H]2C(=O)Nc2ccc(F)nc2)c(C)n1 [Example 53] | 18 nM | 261 nM |  | 
6 | Cc1ncc(OC[C@@]2(c3ccccc3)C[C@H]2C(=O)Nc2cnc(F)c(C)c2)c(C)n1 [Example 57] | 35 nM | 532 nM |  | 
7 | Cc1ncc(OC[C@@]2(c3ccccc3)C[C@H]2C(=O)Nc2cnc(Br)c(C)c2)c(C)n1 [Example 58] | 89 nM | 1930 nM |  | 
8 | Cc1ncc(OC[C@@]2(c3ccccc3)C[C@H]2C(=O)Nc2cnc(Cl)c(Br)c2)c(C)n1 [Example 59] | 51 nM | 1410 nM |  | 
9 | Cc1ncc(OC[C@@]2(c3ccccc3)C[C@H]2C(=O)Nc2cnc(Cl)c(C(F)(F)F)c2)c(C)n1 [Example 60] | 105 nM | > 2000 nM |  | 
10 | Cc1ncc(OC[C@@]2(c3ccccc3)C[C@H]2C(=O)Nc2cccc(F)n2)c(C)n1 [Example 68] |  |  | 56 nM | 140 nM
11 | Cc1ccc(NC(=O)[C@@H]2C[C@@]2(COc2cnc(C)nc2C)c2ccccc2)nc1 [Example 69] |  |  | 34 nM | 126 nM
12 | Cc1cccc(NC(=O)[C@@H]2C[C@@]2(COc2cnc(C)nc2C)c2ccccc2)n1 [Example 70] |  |  | 41 nM | 704 nM
13 | COCc1cc(NC(=O)[C@@H]2C[C@@]2(COc2cnc(C)nc2C)c2ccccc2)ncc1F [Example 71, (1R,2S)-2-{[(2,4-dimethylpyrimidin-5-yl)oxy]methyl}-N-[5-fluoro-4-(methoxymethyl)pyridin-2-yl]-2-phenylcyclopropanecarboxamide] | 5.1 nM | 52 nM |  | 
14 | COc1cc(NC(=O)[C@@H]2C[C@@]2(COc2cnc(C)nc2C)c2ccccc2)ccn1 [Example 72] | 31 nM | 202 nM |  | 
15 | Cc1ncc(OC[C@@]2(c3ccccc3)C[C@H]2C(=O)Nc2cc(F)cc(F)n2)c(C)n1 [Example 76-1, (1R,2S)-N-(4,6-difluoropyridin-2-yl)-2-{[(2,4-dimethylpyrimidin-5-yl)oxy]methyl}-2-phenylcyclopropanecarboxamide] |  |  | 61 nM | 489 nM
16 | Cc1ncc(OC[C@@]2(c3ccccc3)C[C@H]2C(=O)Nc2cc(F)nc(F)c2)c(C)n1 [Example 76-2, (1R,2S)-N-(2,6-difluoropyridin-4-yl)-2-{[(2,4-dimethylpyrimidin-5-yl)oxy]methyl}-2-phenylcyclopropanecarboxamide] | 47 nM | 914 nM |  | 
17 | Cc1ncc(OC[C@@]2(c3ccccc3)C[C@H]2C(=O)Nc2ccc(F)cc2)c(C)n1 [Example 77, (1R,2S)-2-{[(2,4-dimethylpyrimidin-5-yl)oxy]methyl}-N-(4-fluorophenyl)-2-phenylcyclopropanecarboxamide] | 24 nM | 41 nM |  | 
18 | Cc1ncc(OC[C@@]2(c3ccccc3)C[C@H]2C(=O)Nc2ccccc2F)c(C)n1 [Example 78] |  |  | 94 nM | 662 nM
19 | Cc1ncc(OC[C@@]2(c3ccccc3)C[C@H]2C(=O)Nc2cccc(F)c2)c(C)n1 [Example 79] |  |  | 26 nM | 90 nM

Row | Structure (SMILES) | IC50 (OX2; read-out: OX2 (IC50)) | IC50 (OX1; [1]) | IC50 (OX2; OX2 (IC50) nM) | IC50 (OX1)
20 | Cc1ncc(OC[C@@]2(c3ccccc3)C[C@H]2C(=O)Nc2cccc(C#N)c2)c(C)n1 [Example 80] |  |  | 16 nM | 54 nM
21 | Cc1nc(C)[n+]([O-])cc1OC[C@@]1(c2ccccc2)C[C@H]1C(=O)Nc1ccc(F)nc1 [Example 81, (1R,2S)-2-[(2,4-dimethyl-1-oxopyrimidin-5-yl)oxymethyl]-N-(6-fluoropyridin-3-yl)-2-phenylcyclopropanecarboxamide] | 63 nM | 2590 nM |  | 
22 | Cc1ncc(OC[C@@]2(c3cccc(F)c3)C[C@H]2C(=O)Nc2ccc(F)c(F)c2)c(C)n1 [Example 84, (1R,2S)-N-(3,4-difluorophenyl)-2-{[(2,4-dimethylpyrimidin-5-yl)oxy]methyl}-2-(3-fluorophenyl)cyclopropanecarboxamide] |  |  | 3 nM | 6 nM
23 | Cc1ncc(OC[C@@]2(c3cccc(F)c3)C[C@H]2C(=O)Nc2cc(Cl)ccn2)c(C)n1 [Example 85, (1R,2S)-N-(4-chloropyridin-2-yl)-2-{[(2,4-dimethylpyrimidin-5-yl)oxy]methyl}-2-(3-fluorophenyl)cyclopropanecarboxamide] |  |  | 5 nM | 4 nM
24 | COCc1cc(NC(=O)[C@@H]2C[C@@]2(COc2cnc(C)nc2C)c2cccc(F)c2)ncc1F [Example 86, (1R,2S)-2-{[(2,4-dimethylpyrimidin-5-yl)oxy]methyl}-N-(5-fluoro-4-methoxymethylpyridin-2-yl)-2-(3-fluorophenyl)cyclopropanecarboxamide] |  |  | 6.1 nM | 6.3 nM
25 | Cc1ncc(OC[C@@]2(c3cccc(F)c3)C[C@H]2C(=O)Nc2ccccn2)c(C)n1 [Example 87] |  |  | 10 nM | 43 nM
26 | Cc1ncc(OC[C@@]2(c3cccc(F)c3)C[C@H]2C(=O)Nc2ccc(F)nc2)c(C)n1 [Example 88] |  |  | 13 nM | 267 nM
27 | COc1cncc(NC(=O)[C@@H]2C[C@@]2(COc2cnc(C)nc2C)c2cccc(F)c2)c1 [Example 89] |  |  | 14 nM | 161 nM
28 | Cc1ncc(OC[C@@]2(c3cccc(F)c3)C[C@H]2C(=O)Nc2ccncc2)c(C)n1 [Example 90] |  |  | 95 nM | 2060 nM
29 | Cc1ncc(OC[C@@]2(c3cccc(F)c3)C[C@H]2C(=O)Nc2cnc(F)c(C)c2)c(C)n1 [Example 91] |  |  | 22 nM | 215 nM
30 | Cc1ncc(OC[C@@]2(c3cccc(F)c3)C[C@H]2C(=O)Nc2ccc(F)cc2)c(C)n1 [Example 92, (1R,2S)-2-{[(2,4-dimethylpyrimidin-5-yl)oxy]methyl}-2-(3-fluorophenyl)-N-(4-fluorophenyl)cyclopropanecarboxamide] |  |  | 8 nM | 23 nM
31 | Cc1ncc(OC[C@@]2(c3cccc(F)c3)C[C@H]2C(=O)Nc2ccccc2)c(C)n1 [Example 93, (1R,2S)-2-{[(2,4-dimethylpyrimidin-5-yl)oxy]methyl}-2-(3-fluorophenyl)-N-phenylcyclopropanecarboxamide] |  |  | 9 nM | 54 nM
32 | COc1cc(NC(=O)[C@@H]2C[C@@]2(COc2cnc(C)nc2C)c2cccc(F)c2)ncc1F [Example 94, (1R,2S)-2-{[(2,4-dimethylpyrimidin-5-yl)oxy]methyl}-N-(5-fluoro-4-methoxypyridin-2-yl)-2-(3-fluorophenyl)cyclopropanecarboxamide] |  |  | 2.3 nM | 2.8 nM
33 | Cc1ncc(OC[C@@]2(c3cccc(F)c3)C[C@H]2C(=O)Nc2ccnc(F)c2)c(C)n1 [Example 97] |  |  | 21 nM | 105 nM
34 | Cc1ncc(OCC2(c3cccc(F)c3)CC2C(=O)Nc2cccnc2)c(C)n1 (stereo not shown) [Example 99] |  |  | 58 nM | 644 nM
35 | Cc1ncc(OCC2(c3ccc(F)cc3)CC2C(=O)Nc2ccc(C#N)cn2)c(C)n1 (stereo not shown) [Example 101] | 84 nM | 290 nM |  | 
36 | Cc1ncc(OCC2(c3ccc(F)cc3)CC2C(=O)Nc2ccc(Cl)cn2)c(C)n1 (stereo not shown) [Example 102] |  |  | 23 nM | 50 nM
37 | Cc1ncc(OCC2(c3ccc(F)cc3)CC2C(=O)Nc2cccnc2)c(C)n1 (stereo not shown) [Example 103] | 96 nM | 2940 nM |  | 
38 | COc1cc(NC(=O)[C@@H]2C[C@@]2(COc2cnc(C)nc2C)c2ccc(F)cc2)ncc1F [Example 104] | 4.3 nM | 4 nM |  | 
